Results taken from US9353134B2, “Silicon-containing carboxylic acid derivative” (KEMPHYS LTD., priority 2012, dated 2016).

- melting point: 151.5 to 153 °C
Compound: C[Si](C)(CC(CN)CC(=O)O)C1CC1 (stereo not shown)
